Measurements as given in patent US20260335495A1, “SYNERGISTIC ACTIVITY OF NOVEL COMPOUNDS AGAINST PLANKTONIC AND BIOFILM CELLS OF CLINICALLY RELEVANT PATHOGENS” (priority 2021, published 2026).

Tests used:
[1] = tested on: bacterial and fungal biofilms; test: Rapid eradication of 48-h-old biofilms within 2 h exposure; type: cell-based, bacterial and fungal strains; conditions: at the MBEC alone, 48-h-old biofilm
Method: This example comprises performing biofilm growth as described above. After biofilm formation, control pegs (n=6) were removed and analyzed to determine the starting biofilm cell numbers via the drop dilution method. The 48-h old biofilms on the pegs were exposed to different concentrations of test antimicrobials, dissolved in an appropriate growth medium, for 2 hours to evaluate their efficacy alone and in combination. […] Following treatment, pegs were washed twice with sterile PBS, and the biofilm cells were dislodged into recovery medium and enumerated as described above.

[2] = tested on: commonly encountered pathogens; conditions: cited from earlier work
[3] = high concentrations, ALS for CVADs; cited from earlier work
[4] = tested on: Staphylococcus epidermidis ON170; test: MIC and checkerboard (FICI), planktonic cells; type: cell-based; conditions: for MIC: alone, 24 h, 37 °C
Method: (§1) The MIC was determined by the micro broth dilution method in 96-well plates. […] A 10 μL containing 1×10^5 bacterial cells or 2×10^3 fungal cells were added to each well. The inoculated plates were covered with a lid, sealed with Parafilm, and incubated for 24 h at 37 °C with slight rocking on a tilting platform shaker. After incubation, the optical density at 600 nm (OD 600) of the cultures in each well was measured using an xMark™ Microplate Absorbance Spectrophotometer (Bio-Rad). The MIC was defined as the lowest concentration of antimicrobial compound at which the culture OD600 values was similar to uninoculated control wells. MBCs and MFCs were determined by transferring 100 μL from each well with no apparent growth onto appropriate agar plates, followed by incubation for 24 h at 37 °C.
(§2) The concentrations of antimicrobials used were based on previously determined MIC values. […] Microtiter plates were incubated at 37 °C for 24 h, and the results were analyzed. Each test was performed in duplicate and included a growth control without the addition of any antimicrobials.

[5] = tested on: Pseudomonas aeruginosa SK1; test: MIC and checkerboard (FICI), planktonic cells; type: cell-based; conditions: for MIC: alone, 24 h, 37 °C
Method: as §1, §2

S. epidermidis SK9 = test: MIC and checkerboard (FICI), planktonic cells; type: cell-based; conditions: for MIC: alone, 24 h, 37 °C
Method: as §1, §2

C. albicans ON47 = test: MIC and checkerboard (FICI), planktonic cells; type: cell-based; conditions: for MIC: alone, 24 h, 37 °C
Method: as §1, §2

[6] = tested on: Stenotrophomonas maltophilia ON17; test: MIC and checkerboard (FICI), planktonic cells; type: cell-based; conditions: for MIC: alone, 24 h, 37 °C
Method: as §1, §2

Serratia marcescens SK2 = test: MIC and checkerboard (FICI), planktonic cells; type: cell-based; conditions: for MIC: alone, 24 h, 37 °C
Method: as §1, §2

[7] = tested on: Staphylococcus aureus ON89; test: MIC and checkerboard (FICI), planktonic cells; type: cell-based; conditions: for MIC: alone, 24 h, 37 °C
Method: as §1, §2

MRSA ON184 = test: MIC and checkerboard (FICI), planktonic cells; type: cell-based, methicillin-resistant S. aureus; conditions: for MIC: alone, 24 h, 37 °C
Method: as §1, §2

Klebsiella pneumoniae = conditions: 40 mg/mL, locked for 21-25 h, catheter segments; cited from earlier work
C. albicans = conditions: 40 mg/mL, locked for 21-25 h, catheter segments; cited from earlier work
[8] = tested on: clinically relevant pathogens; conditions: 4%; cited from earlier work
[9] = 40 mg/mL solution (4% solution) in distilled water; cited from earlier work
E. coli = conditions: 40 mg/mL, locked for 21-25 h, catheter segments; cited from earlier work
P. aeruginosa = conditions: 40 mg/mL, locked for 21-25 h, catheter segments; cited from earlier work
S. epidermidis = conditions: 40 mg/mL, locked for 21-25 h, catheter segments; cited from earlier work

SMILES	biofilm eradication [1]	MIC in combination ([4]; TE + ET in combination) [%]	MIC [4] [%]	MIC in combination ([5]; TE + ET in combination) [%]	MIC [5] [%]	MIC in combination (S. epidermidis SK9; TE + ET in combination) [%]	MIC (S. epidermidis SK9) [%]	MIC in combination (C. albicans ON47; TE + ET in combination) [%]	MIC (C. albicans ON47) [%]	MIC in combination ([6]; TE + ET in combination) [%]	MIC [6] [%]	MIC in combination (Serratia marcescens SK2; TE + ET in combination) [%]	MIC (Serratia marcescens SK2) [%]	MIC in combination ([7]; TE + ET in combination) [%]	MIC [7] [%]	MIC in combination (MRSA ON184; TE + ET in combination) [%]	MIC (MRSA ON184) [%]	other results
CCO [ET, ethanol]	failed to eradicate the preformed biofilms	0.4	3.125	3.125	3.125	0.4	6.25	0.4	6.25	0.4	6.25	3.125	6.25	0.4	6.25	0.4	6.25	concentration required for a 3-log reduction [2]: ≥ 60%; adverse events [3]: breaches in catheter integrity, systemic toxicity, and protein precipitation causing intraluminal occlusions
O=C(O)CN(CCN(CC(=O)O)CC(=O)O)CC(=O)O.[Na].[Na].[Na].[Na] [TE, tetrasodium ethylenediaminetetraacetic acid]	failed to eradicate the preformed biofilms	0.015	0.063	0.031	0.25	0.015	0.063	0.25	1	0.031	0.063	0.5	1	0.015	0.063	0.015	0.063	biofilm colonization (Klebsiella pneumoniae): reduced biofilm colonization; biofilm colonization (C. albicans): reduced biofilm colonization; biofilm eradication and microbial killing [8]: biofilm eradication and microbial killing ability; pH [9]: ~ 11.0; biofilm colonization (E. coli): reduced biofilm colonization; MIC in combination ([4]; TE + CH in combination): 0.063%; MIC in combination ([5]; TE + CH in combination): 0.5%; MIC in combination (S. epidermidis SK9; TE + CH in combination): 0.015%; MIC in combination (C. albicans ON47; TE + CH in combination): 0.125%; MIC in combination ([6]; TE + CH in combination): 0.015%; MIC in combination (Serratia marcescens SK2; TE + CH in combination): 0.063%; MIC in combination ([7]; TE + CH in combination): 0.008%; MIC in combination (MRSA ON184; TE + CH in combination): 0.008%; biofilm colonization (P. aeruginosa): reduced biofilm colonization; biofilm colonization (S. epidermidis): reduced biofilm colonization
